Source: patent US7977332B2, “Insecticidal N-(heteroarylalkyl)alkanediamine derivatives” (FMC Corporation, priority 2003, dated 2011)

Each molecule was assayed on tobacco budworm (Heliothis virescens [Fabricius]) (assay: surface-treated diet test against tobacco budworm). Details: 0.25 millimolar on the surface of the diet; second instar larvae; five-day exposure.
Type: in vivo
Experimental: Candidate insecticides were evaluated for activity against the tobacco budworm (Heliothis virescens [Fabricius]) in a surface-treated diet test.
In this test one mL of molten (65-70° C.) wheat germ-based artificial diet was pipetted into each well of a four by six (24 well) multi-well plate (ID# 430345-15.5 mm dia.×17.6 mm deep; Corning Costar Corp., One Alewife Center, Cambridge, Mass. 02140). The diet was allowed to cool to ambient temperature before treatment with candidate insecticide.
For a determination of insecticidal activity, solutions of the candidate insecticides were prepared for testing using a Packard 204DT Multiprobe® Robotic System (Packard Instrument Company, 800 Research Parkway, Meriden, Conn. 06450), in which the robot first diluted a standard 50 millimolar DMSO solution of candidate insecticide with a 1:1 water/acetone solution (V/V) in a ratio of 1:7 stock solution to water/acetone. The robot subsequently pipetted 40 microliters of the so-prepared solution onto the surface of the diet in each of three wells in the 24 multi-well plate. The process was repeated with solutions of seven other candidate insecticides. Once treated, the contents of the multi-well plate were allowed to dry, leaving 0.25 millimoles of candidate insecticide on the surface of the diet, or a concentration of 0.25 millimolar. Appropriate untreated controls containing only DMSO on the diet surface were also included in this test.
For evaluations of the insecticidal activity of a candidate insecticide at varying rates of application, the test was established as described above using sub-multiples of the standard 50 millimolar DMSO solution of candidate insecticide. For example, the standard 50 millimolar solution was diluted by the robot with DMSO to give 5, 0.5, 0.05, 0.005, 0.0005 millimolar, or more dilute solutions of the candidate insecticide. In these evaluations there were six replicates of each rate of application placed on the surface of the diet in the 24 multi-well plate, for a total of four rates of application of candidate insecticide in each plate.
In each well of the test plate was placed one second instar tobacco budworm larvea, each weighing approximately five milligrams. After the larvae were placed in each well, the plate was sealed with clear polyfilm adhesive tape. The tape over each well was perforated to ensure an adequate air supply. The plates were then held in a growth chamber at 25° C. and 60% relative humidity for five days (light 14 hours/day).
After the five-day exposure period insecticidal activity for each rate of application of candidate insecticide was assessed as percent inhibition of insect weight relative to the weight of insects from untreated controls, and percent mortality when compared to the total number of insects infested.
The test compounds of formula I are identified by numbers that correspond to those in Table 1.

SMILES	Percent Mortality [%]
C=CCN(CCNC(=C[N+](=O)[O-])SCc1ccc(C(F)(F)F)cc1)Cc1ccc(Cl)nc1 [Compound 328]	83

Same assay, conditions: 0.25 millimolar on the surface of the diet; second instar larvae; five-day exposure; insect weight relative to untreated controls

SMILES	Percent Growth Inhibition [%]
O=[N+]([O-])C=C(NCCN(Cc1ccc(Cl)nc1)Cc1ccc(Cl)nc1)SCc1ccc(C(F)(F)F)cc1 [Compound 324]	100
COc1ccccc1CSC(=C[N+](=O)[O-])NCCN(Cc1ccc(Cl)nc1)Cc1ccc(Cl)nc1 [Compound 325]	100
COc1cccc(CSC(=C[N+](=O)[O-])NCCN(Cc2ccc(Cl)nc2)Cc2ccc(Cl)nc2)c1 [Compound 326]	100
COc1ccc(CSC(=C[N+](=O)[O-])NCCN(Cc2ccc(Cl)nc2)Cc2ccc(Cl)nc2)cc1 [Compound 327]	100
C=CCN(CCNC(=C[N+](=O)[O-])SCc1ccc(C(F)(F)F)cc1)Cc1ccc(Cl)nc1 [Compound 328]	98
C#CCN(CCN1COCNC1=N[N+](=O)[O-])Cc1ccc(Cl)nc1 [Compound 558]	85
